Measurements published in ChEMBL document CHEMBL6109103, “Dodecapeptides derived from human cathelicidin with potent activity against carbapenem-resistant Acinetobacter baumannii” (Eur J Med Chem, 2025).
≈ marks a conversion by molar mass, not a printed value. Calls of active or inactive are those of the source. The rule behind the calls is not given here.

Columns and labels:
Acinetobacter baumannii [1] = assay: Antibacterial activity against multidrug-resistant Acinetobacter baumannii assessed as inhibition of bacterial growth incubated for 24 hrs by broth dilution assay; assay type: functional
Acinetobacter baumannii [2] = assay: Antibacterial activity against Acinetobacter baumannii ATCC 19606 assessed as inhibition of bacterial growth incubated for 24 hrs by broth dilution assay; assay type: functional
Staphylococcus aureus [3] = assay: Antibacterial activity against Methicillin-resistant Staphylococcus aureus ATCC 43300 assessed as inhibition of bacterial growth incubated for 24 hrs by broth dilution assay; assay type: functional
Staphylococcus aureus [4] = assay: Antibacterial activity against Staphylococcus aureus […] assessed as inhibition of bacterial growth incubated for 24 hrs by broth dilution assay; assay type: functional
HUVEC = assay: Cytotoxicity against HUVEC cells assessed as cell death up to 50 microg/ml measured up to 24 hrs; assay type: toxicity, cell-based; details: human, up to 50 µg/mL
A549 = assay: Cytotoxicity against human A549 cells assessed as cell death up to 50 microg/ml measured up to 24 hrs; assay type: toxicity, cell-based; details: a549, 24 h, up to 50 µg/mL
Acinetobacter baumannii [5] = assay: Antibacterial activity against carbapenem-resistant Acinetobacter baumannii clinical isolate 1 assessed as inhibition of bacterial growth incubated for 24 hrs by broth dilution assay; assay type: functional
Acinetobacter baumannii [6] = assay: Antibacterial activity against carbapenem-resistant Acinetobacter baumannii clinical isolate 2 assessed as inhibition of bacterial growth incubated for 24 hrs by broth dilution assay; assay type: functional
Acinetobacter baumannii [7] = assay: Antibacterial activity against carbapenem-resistant Acinetobacter baumannii clinical isolate 3 assessed as inhibition of bacterial growth incubated for 24 hrs by broth dilution assay; assay type: functional
Acinetobacter baumannii [8] = assay: Antibacterial activity against carbapenem-resistant Acinetobacter baumannii clinical isolate 4 assessed as inhibition of bacterial growth incubated for 24 hrs by broth dilution assay; assay type: functional
Acinetobacter baumannii [9] = assay: Antibacterial activity against carbapenem-resistant Acinetobacter baumannii clinical isolate 5 assessed as inhibition of bacterial growth incubated for 24 hrs by broth dilution assay; assay type: functional
Acinetobacter baumannii [10] = assay: Antibacterial activity against carbapenem-resistant Acinetobacter baumannii clinical isolate 6 assessed as inhibition of bacterial growth incubated for 24 hrs by broth dilution assay; assay type: functional
Acinetobacter baumannii [11] = assay: Antibacterial activity against carbapenem-resistant Acinetobacter baumannii clinical isolate 7 assessed as inhibition of bacterial growth incubated for 24 hrs by broth dilution assay; assay type: functional
Acinetobacter baumannii [12] = assay: Antibacterial activity against carbapenem-resistant Acinetobacter baumannii clinical isolate 8 assessed as inhibition of bacterial growth incubated for 24 hrs by broth dilution assay; assay type: functional
Acinetobacter baumannii [13] = assay: Antibacterial activity against carbapenem-resistant Acinetobacter baumannii clinical isolate 6 assessed as bacterial killing at 3.16 microg/ml measured within 10 mins relative to control; assay type: functional; details: dose 3.16 µg/ml
Acinetobacter baumannii [14] = assay: Antibacterial activity against carbapenem-resistant Acinetobacter baumannii clinical isolate 6 assessed as bacterial killing at 3.16 microg/ml measured for 1 hr in presence of NaCl; assay type: functional, organism-based; details: dose 3.16 µg/ml
[15] = Binding affinity to gram negative bacterial lipid II assessed as dissociation constant by BLI analysis; design: species or system Bacteria
Lipoteichoic acid = assay: Binding affinity to […] bacterial Lipoteichoic acid assessed as dissociation constant by BLI analysis; design: species or system Bacteria
HaCaT = assay: Cytotoxicity against human HaCaT cells assessed as cell death up to 100 microg/ml measured upto 24 hrs; assay type: toxicity, cell-based; details: dose < 100 µg/ml
Acinetobacter baumannii [16] = assay: Antibacterial activity against carbapenem-resistant Acinetobacter baumannii clinical isolate 6 assessed as bacterial killing at 3.16 microg/ml measured within 10 mins; assay type: functional, organism-based; details: dose 3.16 µg/ml
Acinetobacter baumannii [17] = assay: Antibacterial activity against carbapenem-resistant Acinetobacter baumannii clinical isolate 6 assessed as bacterial killing at 3.16 microg/ml measured for 10 to 30 mins in presence of mouse serum; assay type: functional, organism-based; details: dose 3.16 µg/ml, time 10-30 min
proteinase K = assay: Proteolytic stability assessed as proteinase K (unknown origin)-mediated drug degradation measured for 20 mins by LC-MS analysis; assay type: ADME, Homo sapiens; details: read-out: Drug degradation
Acinetobacter baumannii [18] = assay: Synergistic antibacterial activity against carbapenem-resistant Acinetobacter baumannii clinical isolate 6 in presence of CTX by microdilution checkerboard assay; assay type: functional, organism-based
Acinetobacter baumannii [19] = assay: Synergistic antibacterial activity against carbapenem-resistant Acinetobacter baumannii clinical isolate 6 in presence of tetracycline by microdilution checkerboard assay; assay type: functional, organism-based
Pseudomonas aeruginosa = assay: Antibacterial activity against human Pseudomonas aeruginosa assessed as inhibition of bacterial growth; assay type: functional, organism-based
Escherichia coli = assay: Antibacterial activity against human Escherichia coli assessed as inhibition of bacterial growth; assay type: functional, organism-based
Cell membrane [20] = assay: Induction of outer membrane permeabilization in carbapenem-resistant Acinetobacter baumannii clinical isolate 6 at 6.25 to 12.5 microg/ml measured for 1 hr by NPN-dye based assay; details: dose 6.25-12.5 µg/ml
Cell membrane [21] = assay: Induction of inner membrane permeabilization in carbapenem-resistant Acinetobacter baumannii clinical isolate 6 at 6.25 microg/ml measured for 1 hr by NPN-dye based assay; details: dose 6.25 µg/ml
Acinetobacter baumannii [22] = assay: Induction of morphological changes in carbapenem-resistant Acinetobacter baumannii at 6.25 microg/ml measured for 24 hrs by SEM analysis; assay type: functional, organism-based; details: dose 6.25 µg/ml
[23] = Hemolytic activity at mouse RBC assessed as hemolysis; assay type: toxicity, cell-based, Erythrocyte; details: mouse red blood cells, read-out: Activity
[24] = Toxicity in BALB/c mouse assessed as animal survival at 4 to 64 mg/kg, ip measured for 5 days; assay type: organism-based; details: in vivo, 120 h, dose 4-64 mg/kg, time 5 day
[25] = Toxicity in BALB/c mouse assessed as heart damage at 64 mg/kg, ip measured for 3 days by H and E staining based analysis; assay type: organism-based; details: in vivo, 72 h, time 3 day
[26] = Toxicity in BALB/c mouse assessed as liver damage at 64 mg/kg, ip measured for 3 days by H and E staining based analysis; assay type: organism-based; details: in vivo, 72 h, time 3 day
[27] = Toxicity in BALB/c mouse assessed as spleen damage at 64 mg/kg, ip measured for 3 days by H and E staining based analysis; assay type: organism-based; details: in vivo, 72 h, time 3 day
[28] = Toxicity in BALB/c mouse assessed as lung damage at 64 mg/kg, ip measured for 3 days by H and E staining based analysis; assay type: organism-based; details: in vivo, 72 h, time 3 day
[29] = Toxicity in BALB/c mouse assessed as kidney damage at 64 mg/kg, ip measured for 3 days by H and E staining based analysis; assay type: organism-based; details: in vivo, 72 h, time 3 day
Acinetobacter baumannii [30] = assay: Antibacterial activity against carbapenem-resistant Acinetobacter baumannii clinical isolate 6 infected in BALB/c mouse assessed as survival rate at 1.25 mg/kg, NAS administered once a day for 3 days; assay type: functional; details: 72 h, time 3 day
[31] = Toxicity in BALB/c mouse assessed as animal survival at 1.25 mg/kg, NAS measured for 5 days; assay type: organism-based; details: in vivo, inhaled or intranasal, time 5 day

Molecule | MIC (Acinetobacter baumannii [1]) [µg/mL] | MIC (Acinetobacter baumannii [2]) [µg/mL] | MIC (Staphylococcus aureus [3]) [µg/mL] | MIC (Staphylococcus aureus [4]) [µg/mL] | MIC (Acinetobacter baumannii [5]) [µg/mL] | MIC (Acinetobacter baumannii [6]) [µg/mL] | MIC (Acinetobacter baumannii [7]) [µg/mL] | MIC (Acinetobacter baumannii [8]) [µg/mL] | MIC (Acinetobacter baumannii [9]) [µg/mL] | MIC (Acinetobacter baumannii [10]) [µg/mL] | MIC (Acinetobacter baumannii [11]) [µg/mL] | MIC (Acinetobacter baumannii [12]) [µg/mL] | Activity (Acinetobacter baumannii [14]) | Kd [15] [nM] | Kd (Lipoteichoic acid) [nM] | Activity (HaCaT) | other results
CC[C@H](C)[C@H](NC(=O)[C@H](CCCCN)NC(=O)[C@H](CCC(=O)O)NC(=O)[C@H](CCCCN)NC(=O)[C@H](CO)NC(=O)[C@H](CCCCN)NC(=O)[C@H](CCCNC(=N)N)NC(=O)[C@H](Cc1ccccc1)NC(=O)[C@H](Cc1ccccc1)NC(=O)[C@H](CC(=O)O)NC(=O)CNC(=O)[C@H](CC(C)C)NC(=O)[C@@H](N)CC(C)C)C(=O)NCC(=O)N[C@@H](CCCCN)C(=O)N[C@@H](CCC(=O)O)C(=O)N[C@@H](Cc1ccccc1)C(=O)N[C@@H](CCCCN)C(=O)N[C@@H](CCCNC(=N)N)C(=O)N[C@H](C(=O)N[C@H](C(=O)N[C@@H](CCC(N)=O)C(=O)N[C@@H](CCCNC(=N)N)C(=O)N[C@H](C(=O)N[C@@H](CCCCN)C(=O)N[C@@H](CC(=O)O)C(=O)N[C@@H](Cc1ccccc1)C(=O)N[C@@H](CC(C)C)C(=O)N[C@@H](CCCNC(=N)N)C(=O)N[C@@H](CC(N)=O)C(=O)N[C@@H](CC(C)C)C(=O)N[C@H](C(=O)N1CCC[C@H]1C(=O)N[C@@H](CCCNC(=N)N)C(=O)N[C@H](C(=O)N[C@@H](CCC(=O)O)C(=O)N[C@@H](CO)C(=O)O)[C@@H](C)O)C(C)C)[C@@H](C)CC)C(C)C)[C@@H](C)CC [CATHELICIDIN] | 10 (≈ 2.23 µM) | 40 (≈ 8.9 µM) | 320 (≈ 71.2 µM) | > 320 | – | – | – | – | – | – | – | – | – | – | – | – | Activity (HUVEC): 29%; Activity (A549): 29%
H-KRIVQRIKDFLR-OH | 160 | > 320 | > 320 | > 320 | 320 | 320 | 320 | 160 | 160 | 160 | 160 | 160 | inactive | 171 | 241 | Non-toxic | Activity (Acinetobacter baumannii [13]): 19.5%
H-KRIVRRIKIFLR-OH | 5 | 10 | 80 | 80 | 10 | 20 | 5 | 5 | 10 | 2.5 | 10 | 10 | Active | 7.14 | 48.3 | Non-toxic | Activity (Acinetobacter baumannii [16]): Active; Activity (Acinetobacter baumannii [17]): Active; metabolised at 20 min (proteinase K): 89.4%; Activity (Acinetobacter baumannii [18]): Active; Activity (Acinetobacter baumannii [19]): Active; Activity (Pseudomonas aeruginosa): Active; Activity (Escherichia coli): Active; Activity (Cell membrane [20]): Active; Activity (Cell membrane [21]): Active; Activity (Acinetobacter baumannii [22]): Active; hemolysis [23]: < 1%; Activity [24]: Non-toxic; Activity [25]: Non-toxic; Activity [26]: Non-toxic; Activity [27]: Non-toxic; Activity [28]: Non-toxic; Activity [29]: Non-toxic; survival at 1.25 mg/kg (Acinetobacter baumannii [30]): 40%; survival at 120 h [31]: 30%
